Measurements reported in ChEMBL document CHEMBL1649076, “Discovery of 5-chloro-N2-[(1S)-1-(5-fluoropyrimidin-2-yl)ethyl]-N4-(5-methyl-1H-pyrazol-3-yl)pyrimidine-2,4-diamine (AZD1480) as a novel inhibitor of the Jak/Stat pathway” (J Med Chem, 2011).
Calls of active or inactive are those of the source. The calls are words filed in the database; no cut-off is given here.

Key:
[1] = molecular target: Signal transducer and activator of transcription 3 (Homo sapiens) (UniProt P40763); conditions: HEL, 0.3 uM
Signal transducer and activator of transcription 3 (Homo sapiens), sequence (P40763 whole entry): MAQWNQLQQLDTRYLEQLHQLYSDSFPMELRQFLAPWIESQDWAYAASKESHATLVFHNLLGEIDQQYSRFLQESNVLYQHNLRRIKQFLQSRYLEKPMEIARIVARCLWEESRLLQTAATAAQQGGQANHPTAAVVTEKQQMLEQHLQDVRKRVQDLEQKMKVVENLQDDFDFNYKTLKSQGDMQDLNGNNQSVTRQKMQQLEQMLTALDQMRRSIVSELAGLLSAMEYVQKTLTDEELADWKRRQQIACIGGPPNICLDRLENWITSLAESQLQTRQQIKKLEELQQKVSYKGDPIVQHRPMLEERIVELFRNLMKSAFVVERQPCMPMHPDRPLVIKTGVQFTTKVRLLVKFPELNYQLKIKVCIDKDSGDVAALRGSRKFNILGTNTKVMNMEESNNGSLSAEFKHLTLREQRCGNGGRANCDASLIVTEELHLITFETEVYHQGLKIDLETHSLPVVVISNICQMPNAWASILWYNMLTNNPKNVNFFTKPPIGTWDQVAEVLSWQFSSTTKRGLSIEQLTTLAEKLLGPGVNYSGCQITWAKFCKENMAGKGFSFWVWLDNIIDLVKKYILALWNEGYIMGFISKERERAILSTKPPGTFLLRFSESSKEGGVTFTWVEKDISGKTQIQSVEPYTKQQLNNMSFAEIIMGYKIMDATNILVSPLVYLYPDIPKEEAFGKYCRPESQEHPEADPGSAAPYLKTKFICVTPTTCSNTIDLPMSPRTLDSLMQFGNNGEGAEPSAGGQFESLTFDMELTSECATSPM
Description: Inhibition of Stat3 phosphorylation in human HEL cells at 0.3 uM after 5 mins by Western blotting

[2] = test system: Mus musculus; assay: Antitumor activity against mouse BA/F3 cells expressing Tel-JAK2 xenografted in po dosed NCr mouse assessed as reduction of phosphorylated Stat5 level in spleen by Western blotting; format: functional, organism-based; conditions: BaF3
[3] = molecular target: T1, Signal transducer and activator of transcription 5A (Homo sapiens) (UniProt P42229); conditions: HEL, 0.3 uM
T1 sequence (whole entry): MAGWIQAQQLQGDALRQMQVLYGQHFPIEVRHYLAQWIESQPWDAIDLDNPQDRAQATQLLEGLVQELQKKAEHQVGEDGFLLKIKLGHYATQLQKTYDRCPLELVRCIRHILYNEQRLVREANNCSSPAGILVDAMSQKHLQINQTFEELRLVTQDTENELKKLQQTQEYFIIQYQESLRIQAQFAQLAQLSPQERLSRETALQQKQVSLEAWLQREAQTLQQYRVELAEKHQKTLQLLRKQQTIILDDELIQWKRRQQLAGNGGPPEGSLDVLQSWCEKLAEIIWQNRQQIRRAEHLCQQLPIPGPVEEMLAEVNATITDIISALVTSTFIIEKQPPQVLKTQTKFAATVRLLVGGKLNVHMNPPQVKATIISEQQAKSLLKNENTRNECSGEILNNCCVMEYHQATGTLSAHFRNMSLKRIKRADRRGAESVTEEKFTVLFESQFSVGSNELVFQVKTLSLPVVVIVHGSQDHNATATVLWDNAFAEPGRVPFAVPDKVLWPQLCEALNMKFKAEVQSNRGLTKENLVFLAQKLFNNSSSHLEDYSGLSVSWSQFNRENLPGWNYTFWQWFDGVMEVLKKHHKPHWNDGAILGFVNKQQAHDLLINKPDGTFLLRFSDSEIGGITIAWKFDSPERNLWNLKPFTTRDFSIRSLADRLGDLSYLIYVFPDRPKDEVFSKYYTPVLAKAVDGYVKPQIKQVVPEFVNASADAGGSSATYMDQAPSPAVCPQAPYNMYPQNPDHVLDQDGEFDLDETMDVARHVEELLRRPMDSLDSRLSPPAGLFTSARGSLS
Description: Inhibition of Stat5 phosphorylation in human HEL cells at 0.3 uM after 5 mins by Western blotting

[4] = test system: Mus musculus; assay: Antitumor activity against mouse BA/F3 cells expressing Tel-JAK2 xenografted in NCr mouse assessed as reduction of phosphorylated Stat5 level in spleen at 30 mg/kg, po after 12 hrs by Western blotting; format: functional, organism-based; parameters: dose 30 mg/kg; conditions: BaF3
[5] = test system: Mus musculus; assay: Antitumor activity against mouse BA/F3 cells expressing Tel-JAK2 xenografted in NCr mouse assessed as reduction of phosphorylated Stat5 level in spleen at 10 mg/kg, po after 12 hrs by Western blotting; format: functional, organism-based; parameters: dose 10 mg/kg; conditions: BaF3
[6] = test system: BaF3; assay: Antitumor activity against mouse BA/F3 cells expressing Tel-JAK2-luc xenografted in NCr mouse assessed as reduction of bioluminescent signal at 50 mg/kg, po bid measured on day 9 post-tumor cell implantation relative to control; format: functional
[7] = test system: SW-620; assay: Cell cycle arrest in human SW620 cells assessed as accumulation at G2/M phase at 3.3 uM after 24 hrs by flow cytometry; format: functional, cell-based

Cc1cc(Nc2nc(N[C@@H](C)c3ncc(F)cn3)ncc2Cl)[nH]n1
inhibition [1]: Active
Activity [2]: Dose-dependent effect
inhibition [3]: Active
Activity [4]: Active
Activity [5]: inactive
Activity [6]: Dose-dependent effect
Activity [7]: Active
